Residue numbers refer to the chain shown, from its start.

In one test the target is T1, RlmE (Escherichia coli, UniProt P0C0R7).
T1 construct: pCA24N or pGEX4T-1 plasmid; purified
T1 sequence (P0C0R7 1-209): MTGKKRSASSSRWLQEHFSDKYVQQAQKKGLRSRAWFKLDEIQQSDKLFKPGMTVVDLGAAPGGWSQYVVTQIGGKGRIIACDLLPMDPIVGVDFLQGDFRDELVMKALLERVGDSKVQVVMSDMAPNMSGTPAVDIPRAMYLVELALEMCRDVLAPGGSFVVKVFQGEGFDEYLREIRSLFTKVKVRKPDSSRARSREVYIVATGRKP
Briefly: in vitro rRNA methylation, HPLC. The class given is biochemical.

Test [1] concerns the target T2, RlmI (Escherichia coli, UniProt P75876).
T2 construct: pCA24N or pGEX4T-1 plasmid; His tag detected by anti-His; purified
T2 sequence (P75876 1-396): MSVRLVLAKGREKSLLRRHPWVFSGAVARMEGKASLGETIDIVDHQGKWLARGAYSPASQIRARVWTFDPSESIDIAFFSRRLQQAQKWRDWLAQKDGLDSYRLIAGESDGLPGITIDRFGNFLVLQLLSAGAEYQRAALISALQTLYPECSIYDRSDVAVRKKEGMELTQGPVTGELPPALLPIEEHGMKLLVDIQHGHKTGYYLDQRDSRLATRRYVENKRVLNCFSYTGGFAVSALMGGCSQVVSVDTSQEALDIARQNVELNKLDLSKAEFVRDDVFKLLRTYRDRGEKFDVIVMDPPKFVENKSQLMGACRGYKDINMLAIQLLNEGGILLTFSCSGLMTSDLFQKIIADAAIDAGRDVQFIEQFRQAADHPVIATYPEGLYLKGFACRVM
Briefly: ITC. The class given is binding.

Test [2] concerns the target T3, RlmI (Escherichia coli, UniProt P75876, K201A).
T3 construct: pCA24N or pGEX4T-1 plasmid; His tag detected by anti-His; purified
T3 sequence (P75876 1-396 K201A): T2 sequence (P75876 1-396) with K201A
Briefly: ITC. It is filed as binding.

In test [3] the target is T4, RlmI (Escherichia coli, UniProt P75876, R103A).
T4 construct: pCA24N or pGEX4T-1 plasmid; His tag detected by anti-His; purified
T4 sequence (P75876 1-396 R103A): T2 sequence (P75876 1-396) with R103A
Briefly: ITC. The class given is binding.

Test [4] concerns the target T2, RlmI. Briefly: in vitro rRNA methylation, HPLC. It is filed as biochemical.
The target in test [5] is T5, RlmI (Escherichia coli, UniProt P75876, R64A).
T5 construct: pCA24N or pGEX4T-1 plasmid; His tag detected by anti-His; purified
T5 sequence (P75876 1-396 R64A): T2 sequence (P75876 1-396) with R64A
Briefly: ITC. It is filed as binding.

Test [6] has as its target T6, RlmI (Escherichia coli, UniProt P75876, G114A).
T6 construct: pCA24N or pGEX4T-1 plasmid; His tag detected by anti-His; purified
T6 sequence (P75876 1-396 G114A): T2 sequence (P75876 1-396) with G114A
Briefly: ITC. The class given is binding.

On to `Nc1nc2c(ncn2[C@@H]2O[C@@H]3CO[P@](=O)(O)O[C@H]4[C@@H](O)[C@H](n5cnc6c(=O)[nH]c(N)nc65)O[C@@H]4CO[P@](=O)(O)O[C@H]3[C@H]2O)c(=O)[nH]1` [c-di-GMP], for which the inhibition at 5 µM was 31% at RlmE and 49% at RlmI [4]. Moreover, the equilibrium dissociation constant (Kd) came to 1.3 µM on RlmI [1]; 401 µM at RlmI [2]; 76.5 µM at RlmI [3]; 102 µM on RlmI [5]; 149 µM at RlmI [6].

A word on the inhibition: it is the change of the read-out against control, counted positive when it falls. A lower inhibition goes with a weak effect. Usually Kd stands for a measure of binding affinity in units of concentration. A high value points to lower affinity.

(Values after article PMC11894153, “c-di-GMP inhibits rRNA methylation and impairs ribosome assembly in the presence of kanamycin” (EMBO Reports, 2025).)
